Results: patent US20070072209A1, “Methods of treatment and diagnosis of Kaposi's sarcoma (KS) and KS related diseases” (priority 2005, published 2007)

Columns and labels:
KSHV-infected DMVEC [1] = conditions: cited from earlier work
Uninfected DMVEC = conditions: cited from earlier work
KSHV-infected DMVEC [2] = conditions: cited from earlier work; remark: listed apart in the source
KSHV-infected DMVEC [3] = test: PMO antisense inhibition of KSHV-induced spindle cell and foci formation (Example 3); assay type: cell-based, human; conditions: for Extent of PMO-induced Inhibition of Spindle Cell Formation: KSHV-infected DMVEC loaded with gene-specific PMO antisense + EPEI; for Phenotype Inhibition (inhibition of spindle cell formation) / KSHV-induced spindle cell / foci formation (in words): KSHV-infected DMVEC; for Phenotype Inhibition (inhibition of spindle cell formation): gene-specific PMO antisense; for KSHV-induced spindle cell / foci formation (in words): PMO antisense, c-Kit: 1.25 nmol PMO + 2.5 μl EPEI per 35 mm dish
Excerpt: Antisense Gene Silencing using PMOs. […] Silencing of such genes precluded progression into the transformed phenotype when silencing occurred prior to transformation, or induced reversion to the normal state when silencing occurred after induction of the transformed state (see TABLE 2 below).
Introduction of antisense PMO into KSHV-infected DMVEC. Antisense PMO molecules, for delivery purposes, are typically converted to a paired duplex together with a partially complementary cDNA oligonucleotide in the weakly basic delivery reagent ethoxylated polyethylenimine (EPEI) (Summerton, supra). The anionic complex binds to the cell surface, is taken up by endocytosis and eventually released into the cytosol. A protocol for optimum uptake of antisense PMO in immortalized DMVEC was developed using a modification of the EPEI method. Briefly, uninfected, immortalized DMVECs were incubated for 3 hours at 37° C. with 0.6 nmol/well FITC-PMO complexed with EPEI according to the manufacturer's instructions (GeneTools, LLC, One Summerton Way, Philomath, Oreg. 97370) (e.g., 1.25 nMol oligomer with 2.5 μl EPEI reagent per 35 mm dish, allowing for sufficient antisense uptake without non-specific EPEI-induced toxicity). The PMOs were labeled with FITC to allow for monitoring of loading efficiency by fluorescence microscopy.
Specifically, DMVEC were infected with KSHV, plated in 35 mm dishes and allowed to grow to about 90% confluence. For treatment, KSHV-infected cells were treated with the anti-c-Kit PMO-antisense oligomer-EPEI delivery reagent complex and incubated for 3 hours at 37° C. in serum-free medium to allow for oligomer uptake. A titration experiment testing a range of different oligomer/EPEI volumes was used to determine that loading 1.25 nmol oligomer with 2.5 μl EPEI reagent per 35 mm dish allowed efficient antisense uptake without non-specific EPEI-induced toxicity. Control (mock-treated) DMVEC cultures were loaded with EPEI reagent and sterile water or sterile water alone. Upon removal of the oligomer-EPEI solution, cell monolayers were rinsed in serum-free medium fed with complete medium and examined daily for one week by phase microscopy for evidence of phenotypic change.

KSHV-infected DMVEC [4] = test: XTT proliferation assay of PMO-loaded KSHV-infected DMVEC (Example 3); assay type: cell-based, human; conditions: PMO antisense silencing
Description: Proliferation assays, and loading of cells with PMOs. Proliferation of KSHV-infected DMVEC was quantified using an XTT (2,3-bis-(2-methoxy-4-nitro-5-sulfophenyl)-2H-tetrazolium-5-carboxanilide, disodium salt)-based assay. KSHV-infected cells were added to Primaria 96-well trays (Becton Dickinson) at 1×10^4 or 5×10^4 cells/well. XTT (Roche, Molecular Biochemicals, Indianapolis, Ind.) was added 48 hours later according to the manufacturer's instructions. Absorbance was read after 4 to 6 hours on a microplate reader.
Briefly, cells were plated in 96-well trays at a density approaching confluence (5×10^4 cells per well) in 100 μl of complete medium. PMOs were loaded the following day in a total of 100 μl (0.5 μl PMO, 0.5 μl EPEI, 49 μl H2O and 50 μl serum free medium) with reagent mixing as described by the manufacturer (GeneTools). Controls included a FITC PMO control oligonucleotide, EPEI only or H2O only. Each variable was performed in quadruplicate. Fresh complete medium was replaced 4 hours after loading. Cells were cultured for 4 days to allow for multi-layered cell growth post-confluence in the absence of any growth inhibition. XTT was added on day 4 of culture and the absorbance read 4 hrs later on a microplate reader. Cell proliferation (growth) values are given as percentage inhibition values, relative to cells without PMO, which are adjusted to 100%.

KSHV-infected DMVEC [5] = test: Morpholino treatment and focus inhibition assay (Example 5); assay type: cell-based, human; conditions: for Foci/spindle morpholigical inhibition: PMO-treated KSHV-infected DMVEC vs control PMO, repeated three times
Description: Morpholino Treatment and Focus Inhibition Assay. Phosphorodiamidate morpholino antisense oligonucleotides (PMO-AS) were designed and synthesized by Gene Tools LLC (Philomath, Oreg.) as a Special Delivery formulation, which pairs the morpholino with a partially complementary DNA oligo. A weakly basic delivery agent, Ethoxylated Polyethlyenimine (EPEI) is then used to deliver the anionic morpholino/DNA duplex into the cytosol. PMO-AS were received as sterile, lyophilized solids ([…]) that were solubilized in sterile water to obtain 0.5 mM stock solutions. To load a 35 mm dish of DMVEC at 90% confluence, 5 microl of stock solution was mixed with 5 microl of EPEI delivery solution in 590 μl H20 for 20 minutes at room temperature, and then mixed with 1.5 ml of serum-free RPMI medium. Endothelial growth media was removed from DMVEC, and replaced with the PMO-AS:EPEI:RPMI delivery solution for 3 hours in a 37° C. incubator. After incubation, cells were rinsed, complete endothelial growth medium was added and cells were cultured for up to 10 days without sub-culture, with media replacement every 48-72 hours. This protocol allows for the characteristic post-confluent growth and development of multi-layered spindle-cell aggregates (foci) in KSHV-infected cultures. Cells were monitored daily under the phase microscope to evaluate PMO-AS-inhibition of the development of these foci. At the conclusion of an assay, cells were fixed in 2% paraformaldehyde and stained with a MAB against CD31 (Dako; 1:100) followed by a goat-anti-mouse FITC second conjugate. Junctional staining of cells with CD31 accentuated the disorganized multi-layered nature of the spindle cell aggregates as composed to the flat, organized profile of contact-inhibited cells.
For these assays, KSHV-infected DMVEC monolayers were cultured to 90% confluence and then loaded with each PMO-AS, or maintained as unloaded controls. Cultures were observed daily until control cultures had developed prominent multi-layered aggregates of spindle cells. Typically this took 5-10 days with some variation between replicate experiments. Each experiment was performed at least three times and was performed with mock-infected as well as KSHV-infected DMVEC. As expected, mock-infected DMVEC maintained a quiescent monolayer at confluence, and PMO-AS treatment of uninfected cells occurred without any adverse effect. This observation allowed verification that none of the gene knockdown treatments induced non-specific toxicity in DMVEC. The majority of tested PMO-AS had no effect on the ability of KSHV-infected DMVEC to grow post-confluence and form disorganized, multi-layered foci (TABLE 2).

Cc1ccc(NC(=O)c2ccc(CN3CCN(C)CC3)cc2)cc1Nc1nccc(-c2cccnc2)n1 [STI 571]
focus formation (KSHV-infected DMVEC [1]; KSHV-infected DMVEC): focus formation is inhibited | phenotype after removal of drug (KSHV-infected DMVEC [1]; even after exposure of cells to a 10 μM dose): regeneration of the transformed phenotype | effect on cell morphology or viability (Uninfected DMVEC): has effect on cell morphology or viability | nonspecific cytotoxicity (cell viability controls) (KSHV-infected DMVEC [2]): not due to nonspecific cytotoxicity | proliferative response to exogenous SCF (KSHV-infected DMVEC [2]): inhibited

ANGPTL2: PMO antisense to ANGPTL2, AGCATGTCACGCACAGTGGCCTCAT (SEQ ID NO:33) (all phosphorodiamidate morpholino (PMO); delivered paired with partially complementary DNA oligo (Special Delivery))
Extent of PMO-induced Inhibition of Spindle Cell Formation (KSHV-infected DMVEC [3]): intermediate | Phenotype Inhibition (inhibition of spindle cell formation) (KSHV-infected DMVEC [3]): Intermediate | KSHV-induced spindle cell / foci formation (in words) (KSHV-infected DMVEC [3]): intermediate inhibitory effects

IFACTOR: PMO antisense to IFACTOR, AGCTTCATGTTGGAGGTGTTCG (SEQ ID NO:22) (all phosphorodiamidate morpholino (PMO); delivered paired with partially complementary DNA oligo (Special Delivery))
inhibition of KSHV-induced cellular proliferation (in words) (KSHV-infected DMVEC [4]): relatively little or no significant inhibition | Extent of PMO-induced Inhibition of Spindle Cell Formation (KSHV-infected DMVEC [3]): none | Phenotype Inhibition (inhibition of spindle cell formation) (KSHV-infected DMVEC [3]): None | KSHV-induced spindle cell / foci formation (in words) (KSHV-infected DMVEC [3]): little or no affect

IGFBP2: PMO antisense to IGFBP2, GGCAGCCCACTCTCTCGGCAGCATG (SEQ ID NO:16) (all phosphorodiamidate morpholino (PMO); delivered paired with partially complementary DNA oligo (Special Delivery))
inhibition of KSHV-induced cellular proliferation (in words) (KSHV-infected DMVEC [4]): substantial inhibition | Extent of PMO-induced Inhibition of Spindle Cell Formation (KSHV-infected DMVEC [3]): full | Phenotype Inhibition (inhibition of spindle cell formation) (KSHV-infected DMVEC [3]): Full | KSHV-induced spindle cell / foci formation (in words) (KSHV-infected DMVEC [3]): fully reversed spindle cell formation | Foci/spindle morpholigical inhibition (KSHV-infected DMVEC [5]): Full

INSR: PMO antisense to INSR, GGGTCTCCTCGGATCAGGCGCG (SEQ ID NO:20) (all phosphorodiamidate morpholino (PMO); delivered paired with partially complementary DNA oligo (Special Delivery))
inhibition of KSHV-induced cellular proliferation (in words) (KSHV-infected DMVEC [4]): substantial inhibition | Extent of PMO-induced Inhibition of Spindle Cell Formation (KSHV-infected DMVEC [3]): intermediate | Phenotype Inhibition (inhibition of spindle cell formation) (KSHV-infected DMVEC [3]): Intermediate | KSHV-induced spindle cell / foci formation (in words) (KSHV-infected DMVEC [3]): intermediate inhibitory effects | effect on phenotype (foci, spindle shape) in focus-inhibition assay (in words) (KSHV-infected DMVEC [5]; PMO-AS, KSHV-infected DMVEC, 5-10 days): marginal but reproducible effect on phenotype | Foci/spindle morpholigical inhibition (KSHV-infected DMVEC [5]): Intermediate

K1AA0367: PMO antisense to KIAA0367, GTCAGTTTACTCATGTCATCTATTG (SEQ ID NO:18) (all phosphorodiamidate morpholino (PMO); delivered paired with partially complementary DNA oligo (Special Delivery))
inhibition of KSHV-induced cellular proliferation (in words) (KSHV-infected DMVEC [4]): substantial inhibition | Extent of PMO-induced Inhibition of Spindle Cell Formation (KSHV-infected DMVEC [3]): intermediate | Phenotype Inhibition (inhibition of spindle cell formation) (KSHV-infected DMVEC [3]): Intermediate | KSHV-induced spindle cell / foci formation (in words) (KSHV-infected DMVEC [3]): intermediate inhibitory effects

LMO2: PMO antisense to LMO2, GCCGAGGACATTGGGGAGGGAGGCG (SEQ ID NO:23) (all phosphorodiamidate morpholino (PMO); delivered paired with partially complementary DNA oligo (Special Delivery, EPEI))
Extent of PMO-induced Inhibition of Spindle Cell Formation (KSHV-infected DMVEC [3]): none | KSHV-induced spindle cell / foci formation (in words) (KSHV-infected DMVEC [3]): little or no affect | Foci/spindle morpholigical inhibition (KSHV-infected DMVEC [5]): None

LOX: PMO antisense to LOX, GGAGCACGGTCCAGGCGAAGCGCAT (SEQ ID NO:31) (all phosphorodiamidate morpholino (PMO); delivered paired with partially complementary DNA oligo (Special Delivery, EPEI))
Extent of PMO-induced Inhibition of Spindle Cell Formation (KSHV-infected DMVEC [3]): full | Phenotype Inhibition (inhibition of spindle cell formation) (KSHV-infected DMVEC [3]): Full | KSHV-induced spindle cell / foci formation (in words) (KSHV-infected DMVEC [3]): fully reversed spindle cell formation

MFAP3: PMO antisense to MFAP3, TGAATAAGCAACAATGTAGCTTCAT (SEQ ID NO:24) (all phosphorodiamidate morpholino (PMO); delivered paired with partially complementary DNA oligo (Special Delivery, EPEI))
inhibition of KSHV-induced cellular proliferation (in words) (KSHV-infected DMVEC [4]): relatively little or no significant inhibition | Extent of PMO-induced Inhibition of Spindle Cell Formation (KSHV-infected DMVEC [3]): none | Phenotype Inhibition (inhibition of spindle cell formation) (KSHV-infected DMVEC [3]): no and None | KSHV-induced spindle cell / foci formation (in words) (KSHV-infected DMVEC [3]): little or no affect | Foci/spindle morpholigical inhibition (KSHV-infected DMVEC [5]): None

NOV: PMO antisense to NOV, AGCTCGTGCTCTGCACACTCTGCAT (SEQ ID NO:32) (all phosphorodiamidate morpholino (PMO); delivered paired with partially complementary DNA oligo (Special Delivery, EPEI))
Extent of PMO-induced Inhibition of Spindle Cell Formation (KSHV-infected DMVEC [3]): full | Phenotype Inhibition (inhibition of spindle cell formation) (KSHV-infected DMVEC [3]): Full | KSHV-induced spindle cell / foci formation (in words) (KSHV-infected DMVEC [3]): fully reversed spindle cell formation

Osteopontin
inhibition of KSHV-induced cellular proliferation (in words) (KSHV-infected DMVEC [4]): relatively little or no significant inhibition | Phenotype Inhibition (inhibition of spindle cell formation) (KSHV-infected DMVEC [3]): None | Foci/spindle morpholigical inhibition (KSHV-infected DMVEC [5]): None
